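96-well plates; 48 h exposure; 5 concentrations. Endpoints by linear interpolation between flanking doses. Not reached: highest tested concentration assigned. Abbreviation: GI50, concentration required for 50% inhibition of growth. TGI: total growth inhibition.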

Test in all cases: DTP human tumour cell line panel, 48 h
In test [1] the test system is DLD-1 colon.
Test [2] deals with DMS 114 small cell lung.
Test [3] relates to DMS 273 small cell lung.
The test system of test [4] is KM20L2 colon.
Test [5] deals with LXFL 529 NSCLC.
For test [6], the system named is SNB-78 CNS.
Test [7] concerns XF 498 CNS.
The test system of test [8] is RXF-631 renal.
The subject of test [9] is MDA-N.

Turning to `COc1ccccc1NC(=O)CC(=O)N1N=C(C)C(N=Nc2ccc(S(N)(=O)=O)cc2)C1=O` (stereo not given), the TGI in [1], in test [2], in test [3], in [4], in test [5] and in test [6] was above 100 µM in each case. For the same compound, the TGI (in general, the concentration at which net growth stops) in test [7] is above 100 µM.

With `Cc1ccncc1.[O]=[Ge].[O]=[Ge].[O]=[Ge].[O]=[Ge].[O]=[Ge].[O]=[Ge][OH].[O]=[Ge][OH]`, the GI50 in [1], in test [2], in test [3], in [4], in test [5] and in [8] was above 100 µM in each case. Also, the GI50 in [6] and in [7] was above 100 µM in each case. Moreover, the TGI in [1], in [2], in [3], in [4], in test [5] and in test [8] was above 100 µM in each case. In addition, the TGI in test [6] and in test [7] was above 100 µM each time.

With `CCCN=Cc1cc(Cc2ccc(O)c(C=NCCC)c2)ccc1O`, in test [9], the TGI is 10.1 µM.

`C[N+](C)(C)CC(=O)N/N=C(/Cc1nc2c3c(ccc2[nH]c1=O)C(=O)c1ccccc1C3=O)C(=O)Nc1ccc(Cl)c(Cl)c1`: the TGI in test [1], in test [2], in [4] and in test [8] was above 100 µM throughout.

Compound `CN(C)/C=C/c1nnc([N+](=O)[O-])s1` registered a TGI in test [9] of 17.4 µM. That is a double-digit micromolar value.

Consider `CCOC(=O)C1=C(C)N(Cc2ccccc2)C(C)=C(C(=O)OCC)C1c1ccccc1O`, for which the TGI in test [1] was above 100 µM; in [2], 43.8 µM; in test [3] it was above 100 µM; in test [4], above 100 µM; in [5], 71 µM; in test [8], above 100 µM. The compound further gave a TGI in test [7] of 51.3 µM.

Consider `Cc1cc(N(CCC#N)S(=O)(=O)c2ccccc2)ccc1/C=C1N=C(/C=C/c2ccccc2)OC\1=O`, for which the concentration for total growth inhibition (TGI) in test [1], in [2], in [3], in test [4], in [5] and in test [6] was above 100 µM each time. Further, the concentration for total growth inhibition (TGI) in test [7] is above 100 µM.

Regarding `CCCCCCCCCCCCOC(=S)NCCCC`, the TGI in test [1] was above 100 µM; in test [2], 37.7 µM; in [3], 41 µM; in test [4], 39.5 µM; in test [5] it was above 100 µM; in test [8], 55.6 µM. Also, the total growth inhibition concentration (TGI) came out at 88.4 µM in [6] and 31.9 µM in test [7].

`CCCc1[nH]nc(CCC(=O)N(Cc2ccccc2)Cc2ccccc2)c1CC`: the TGI in [1], in test [2], in test [3], in test [4], in test [5] and in [8] was above 100 µM in each case. In test [7], the TGI was above 100 µM.

With `COCCN1C2=CCCCC2=Nc2c1nc(N)[nH]c2=O`, the TGI in [1], in test [2], in test [3], in test [4], in test [5] and in test [8] was above 100 µM throughout. The TGI in test [6] and in test [7] was above 100 µM in each case.

For `c1cc(-c2cn3ccsc3n2)ccn1`, the TGI in test [1] is above 100 µM; in [2], above 100 µM; in [3] it was above 100 µM; in test [4], above 31.6 µM; in test [5], above 100 µM; in test [8], above 100 µM. Also, the concentration for total growth inhibition (TGI) in test [6] and in test [7] was above 100 µM throughout.

Take `Cc1ccc(C(=O)O/N=C2/CCC/C2=C\c2ccccc2)cc1`: the TGI in [1], in test [2], in [3], in [4], in test [5] and in [6] was above 100 µM in each case.

For the compound `Cc1occc1C(=S)Nc1ccc(Cl)c(COC(C)(C)C)c1`, the TGI in [9] is 34.4 µM.

As for `N#CC(C(=O)/C(=N/NC(=O)c1ccccc1O)C(C#N)c1ccc(Cl)cc1)c1ccc(Cl)cc1` (stereo not given), the concentration for total growth inhibition (TGI) in test [1] was 33 µM; in test [2], 69.7 µM; in test [4], 27.2 µM; in [5], 25.1 µM; in test [6], above 100 µM; in [7] it was 26.3 µM.

In the case of `NC(=S)N/N=C(/CC(=O)c1ccccc1)C(=O)Nc1ccc(Cl)c(Cl)c1`, the total growth inhibition concentration (TGI) in [1], in [2], in [3], in [4], in test [5] and in [6] was above 100 µM throughout.

Consider `CC(C)C(=O)Nc1nc2nc[nH]c2c(=O)[nH]1`, for which the concentration for total growth inhibition (TGI) in test [1], in test [2], in test [3], in [4], in test [5] and in test [8] was above 100 µM in each case. In addition, the TGI in test [6] and in test [7] was above 100 µM in each case.

On to `Nc1cc2cccc[n+]2c2cc(Cl)ccc12`, for which, in test [9], the GI50 (as a rule, the concentration at which growth is held to half of that of the control) was 12.6 µM and the total growth inhibition concentration (TGI) is 38.8 µM.

On to `O=c1c2c([nH]c3cc4c(cc13)OCO4)-c1ccccc1CC2`, for which the concentration for total growth inhibition (TGI) in test [1], in [2], in [3], in [4], in [5] and in [8] was above 100 µM throughout. The total growth inhibition concentration (TGI) in test [7] was above 100 µM.

As to `COc1ccc2c(c1)C(O)(C(F)(F)F)c1cc(C(=O)C(F)(F)F)c3ccccc3c1N2` (stereo not given), the TGI in test [1] was 22.4 µM; in test [2], 22.1 µM; in test [3], 23.1 µM; in [4], 13.7 µM; in test [5], 22 µM; in [8], 34.6 µM.

With `Cc1ccc(-c2c(N)[n+]([O-])c3ccccc3[n+]2[O-])cc1`, the TGI is 28.7 µM in test [1]; 29.5 µM in test [3]; 38.9 µM in test [4]; 18.3 µM in [5]; 3.19 µM in test [8]; 37.1 µM in [6]. In test [7], this compound yielded a TGI of 19.5 µM.

For `O=C(c1ccc(F)cc1)c1cccc(C(=O)c2ccc(F)cc2)n1`, the TGI in test [1] was above 100 µM; in test [2], 96.4 µM; in [3] it was above 100 µM; in test [4], above 100 µM; in [5] it was above 100 µM; in test [9] it was above 100 µM. Further, the TGI in test [6] is above 58.1 µM; in test [7] it was above 59.7 µM.

In the case of `CC1=NCCc2c1[nH]c1cc(O)ccc21`, the TGI in test [1], in test [2], in [4], in test [5], in test [8] and in test [6] was above 100 µM in each case. For the same compound, the TGI in test [7] was above 100 µM.

In the case of `COc1cc2c(cc1OC)C(N(C)C)C(c1ccccc1)=C2Cl` (stereo not given), the TGI was determined as 32.3 µM in [1], 30.9 µM in [3], 58.6 µM in test [4] and 30.5 µM in [8].

For `COC(=O)c1csnn1`, the TGI in test [2], in test [3], in test [4], in test [5] and in test [7] was above 100 µM each time.

Consider `C=CCC1([C@H](C)[C@@H](OC(C)=O)c2cc(OC)c(OC)c(OC)c2)C[C@@H](OC)CCC1=O` (stereo not given in full), for which the TGI was determined as 37.5 µM in test [1]; 44.4 µM in [2]; 24.6 µM in test [4]; 31.2 µM in test [5]; 32.9 µM in test [7].

In the case of `CC(C)(C)OC(=O)C#CC[C@H]1CCCC1/C=C/C(O)=C1/C(=O)NC(CCCNC(=O)OC(C)(C)C)C1=O` (stereo not given in full), the TGI in test [1] was above 100 µM; in test [2], 61.3 µM; in test [3], 65.9 µM; in test [4] it was 53.2 µM; in test [5], 53.8 µM; in test [8], 44.9 µM.

Regarding `O=Cc1cn(C(=O)c2ccccc2)c2ccccc12`, the TGI in test [1], in test [2], in [3], in test [4], in test [5] and in [6] was above 100 µM in each case.

`CC1CCCCc2nc3c(c(=O)n21)CCCC3` (stereo not given): the concentration for total growth inhibition (TGI) in [1], in [3], in test [4], in test [5], in test [8] and in [6] was above 100 µM throughout. In test [7], this compound registered a TGI above 100 µM.

As to `COc1nc(NC2OCC(OC(C)=O)C(OC(C)=O)C2OC(C)=O)c(N=CC=Nc2c(NC3OCC(OC(C)=O)C(OC(C)=O)C3OC(C)=O)nc(OC)n(C)c2=O)c(=O)n1C` (stereo not given), the total growth inhibition concentration (TGI) was above 100 µM in [1]; above 100 µM in test [3]; above 100 µM in test [4]; above 100 µM in [5]; above 100 µM in test [6]; 95.9 µM in [7].

Consider `Cc1cccc(NC(=O)CC(=O)N2N=C(N(CCC#N)c3ccc(Cl)cc3)CC2c2ccccc2)c1` (stereo not given), for which the TGI in test [1], in test [2], in test [3], in test [5], in test [8] and in test [6] was above 100 µM each time. Moreover, in test [7], the TGI was above 100 µM.

In [9], `CCCCOc1ccc(NC(N)=Nc2ccc(Cl)cc2)cc1` showed a TGI of 19.5 µM. That is a double-digit micromolar value.

On to `COc1cccc(NC(=O)CC(=O)N2N=C(N(CCC#N)c3ccc(Cl)cc3)CC2c2ccccc2)c1` (stereo not given), for which the concentration for total growth inhibition (TGI) in test [1], in [2], in test [3], in [4], in [5] and in test [6] was above 100 µM in each case.

Regarding `CCCCCCCCCc1cc(=O)c2ccc(OCc3ccccc3)cc2o1`, the TGI in test [1], in [2], in test [3], in test [4], in test [5] and in test [6] was above 100 µM each time. The compound also gave a TGI in test [7] above 100 µM.

Take `O=C(Cn1ccc(=O)[nH]c1=O)Nc1ccc(C(=O)O)c(O)c1`: the concentration for total growth inhibition (TGI) in [9] is above 100 µM.

`COc1c2c(c3c(c1CCC(=O)O)OC(C)(C)C=C3)OC(C)(C)C=C2` showed a concentration for total growth inhibition (TGI) in test [9] above 100 µM.

As for `COC(=O)CCC1CCc2c(OC)ccc(O)c2C1=O` (stereo not given), the TGI in test [1], in test [3], in test [5], in test [8] and in test [6] was above 100 µM throughout.

As for `O=C(O)c1ccc([Se][Se]c2ccc(C(=O)O)cc2)cc1`, the total growth inhibition concentration (TGI) in test [1] was above 100 µM; in test [2] it was 54 µM; in test [3], 49.7 µM; in test [4] it was above 100 µM; in test [5], 62.4 µM; in test [8], 52.6 µM. Besides, the TGI came to 52.4 µM in test [6] and 81.1 µM in test [7].

Regarding `O=C(CC(=O)CC(O)(C(F)(F)F)C(F)(F)F)CC(O)(C(F)(F)F)C(F)(F)F`, in test [9], the TGI was above 10 µM.

On to `O=C([O-])c1ccccc1Nc1ccccn1.O=C([O-])c1ccccc1Nc1ccccn1.[Ni+2]`, for which the GI50 in test [1] was above 100 µM; in test [2] it was above 100 µM; in test [5], 55.2 µM; in [6] it was 91.8 µM. Moreover, the TGI in [1], in test [2], in test [5] and in [6] was above 100 µM in each case.

On to `CC(=O)NNc1nc(C)c(C(=O)NNC(=O)C(=O)Nc2ccccc2C#N)s1`, for which the TGI in test [1], in [2], in test [3], in [4], in test [5] and in test [8] was above 100 µM each time. The same compound registered a concentration for total growth inhibition (TGI) in test [6] above 100 µM.

Take `COc1cc(C2c3cc4c(cc3OC(N3CCCC3)C2C)OCO4)cc(OC)c1OC` (stereo not given): the TGI in test [9] was determined as 0.418 µM.
